Molecules are shown by their SMILES.

Data set [1] deals with immortalized human corneal endothelial cells from a Fuchs' endothelial corneal dystrophy patient (iFECD). The data set is described as follows: Suppression of TGF-β-induced corneal endothelial cell disorder, observed under a phase contrast microscope. Conditions: for effect of suppressing corneal endothelial cell disorder: Example 1, iFECD, 24 h pretreatment then 10 ng/ml TGF-β 24 h. Type of data set: cell-based. As for the experimental part:
The medium was removed from a culture dish culturing immortalized human corneal endothelial cells from a Fuchs' endothelial corneal dystrophy patient (iFECD), and 1×PBS(-) preheated to 37° C. was added and washed. This was repeated twice. 1×PBS(-) was added again and the medium was incubated for 5 minutes at 37° C. (5% CO2). After removing the PBS(-), 0.05% Trypsin-EDTA (Nacalai Tesque, 32778-34) was added and incubated for 5 minutes at 37° C. (5% CO2). The medium was then suspended and centrifuged for 3 minutes at 1500 rpm to retrieve cells. DMEM (Nacalai Tesque, 08456-36)+10% FBS (Biowest, S1820-500)+1% P/S (Nacalai Tesque, 26252-94) was used as the medium. The immortalized human corneal endothelial cells from a Fuchs' endothelial corneal dystrophy patient (iFECD) were seeded on a 12-well plate at a ratio of 8.0×10^4 cells per well and cultured for 24 hours at 37° C. (5% CO2). DMEM+10% FBS+1% P/S was used as the medium. After 24 hours, the medium was exchanged and cultured again for 24 hours. DMEM+2% FBS+1% P/S was used as the medium. After 24 hours, the medium was removed. 10 ng/ml of Transforming Growth Factor-132 Human recombinant (WAKO, 200-19911) was added, and the medium was cultured for 24 hours. DMEM+2% FBS+1% P/S was used as the medium. After 24 hours, the cell morphology and apoptosis were observed under a phase contrast microscope. After […] were seeded on a 12-well plate and cultured for 24 hours, the medium was removed. SB431542 (WAKO, 192-16541) and EW-7197 (Selleck Chemicals, 57530) were added so that the final concentration would each be 0.1, 0.3, 1, 3, or 10 μM, and the medium was cultured for 24 hours. DMEM+2% FBS+1% P/S was used as the medium. After 24 hours, the medium was removed. 10 ng/ml of Transforming Growth Factor-132 Human recombinant (WAKO, 200-19911) as well as SB431542 and EW-7197 were added so that the final concentration would each be 0.1, 0.3, 1, 3, or 10 μM, and the medium was cultured for 24 hours. DMEM+2% FBS+1% P/S was used as the medium. After 24 hours, the cell morphology and apoptosis were observed under a phase contrast microscope. After […] were seeded on a 12-well plate at a ratio of 7.0×10^4 cells and cultured for 24 hours, the medium was removed. EW-7197 (Selleck Chemicals, 57530) was added so that the final concentration would be 0.001, 0.003, 0.01, 0.03, 0.1, 0.3, 1, 3, 10, or 30 μM, and the medium was cultured for 24 hours. DMEM+2% FBS+1% P/S was used as the medium. After 24 hours, the medium was removed. 10 ng/ml of Transforming Growth Factor-132 Human recombinant (WAKO, 200-19911) and EW-7197 were added so that the final concentration would be 0.001, 0.003, 0.01, 0.03, 0.1, 0.3, 1, 3, 10, or 30 μM, and the medium was cultured for 24 hours. DMEM+2% FBS+1% P/S was used as the medium. After 24 hours, the cell morphology and apoptosis were observed under a phase contrast microscope.

A further data set relates to iFECD. The data set is described as follows: Cell survival rate (Cell Titer-Glo Luminescent Cell Viability Assay). Type of data set: cell-based, human. Conditions: iFECD; all concentrations of 0.01, 0.1, 1, and 10 μM; 48 hours. As for the experimental part: were seeded on a 96-well plate at a ratio of 3×10^3 cells per well, and cultured until reaching confluence at 37° C. (5% CO2). DMEM+10% FBS+1% P/S was used as the medium. After 24 hours, the medium was removed. SB431542 (WAKO, 192-16541) and EW-7197 (Selleck Chemicals, 57530) were added so that the final concentration would each be 0.01, 0.1, 1, or 10 μM, and the medium was cultured for 48 hours. DMEM+2% FBS+1% P/S was used as the medium. After 24 hours, the cell morphology was observed under a phase contrast microscope. After observation, the cell survival rate was analyzed using Cell Titer-Glo Luminescent Cell Viability Assay by the following procedures. The medium was discarded so that the amount would be 50 μl per well, and Cell Titer-Glo Luminescent Cell Viability Assay solution (Promega, G7572) was added at 50 μl/well so that the ratio to the medium would be 1:1. The process was hereinafter conducted without exposure to light. The mixture was mixed thoroughly using a shaker for 2 minutes at about 120 min^-1, and incubated for 10 minutes. After the incubation, 80 μl was transferred to an Assay plate (Corning, 3912, Assay plate 96 well, white polystyrene), and absorbance was measured using a GloMax-Multi Detection System (Promega, E7051).

In the next data set the test system is Caspase 3/7. The data set is described as follows: Caspase 3/7 activity (Caspase-Glo 3/7 Assay) in TGF-β-stimulated iFECD. The class given is cell-based, human. Conditions: in the order of 0.01, 0.1, 1, and 10 μM. Here is the method:
were seeded on a 96-well plate at a ratio of 3×10^3 cells per well, and cultured until reaching confluence at 37° C. (5% CO2). DMEM+10% FBS+1% P/S was used as the medium. After 24 hours, the medium was removed. SB431542 (WAKO, 192-16541) and EW-7197 (Selleck Chemicals, 57530) were added so that the final concentration would each be 0.01, 0.1, 1, or 10 μM, and the medium was cultured for 24 hours. DMEM+2% FBS+1% P/S was used as the medium. After 24 hours, the medium was removed. 10 ng/ml of Transforming Growth Factor-132 Human recombinant (WAKO, 200-19911) and SB431542 were added so that the final concentration would be 0.01, 0.1, 1, and 10 μM, and the medium was cultured for 24 hours. DMEM+2% FBS+1% P/S was used as the medium. After 24 hours, the cell morphology was observed under a phase contrast microscope. After observation, Caspase 3/7 activity was measured using Caspase-Glo 3/7 Assay by the following procedures. The medium was discarded so that the amount would be 50 μl per well, and a Caspase Glo 3/7 Assay Reagent (mixture of Caspase-Glo 3/7 Assay Buffer and Caspase-Glo 3/7 Assay Substrate) (Promega, G8091) solution was added at 50 μl/well so that the ratio thereof to the medium would be 1:1. The process was hereinafter conducted without exposure to light. The mixture was mixed thoroughly using a shaker for 2 minutes at about 120 min^-1, and incubated for 40 minutes at room temperature. After the incubation, 80 μl was transferred to an Assay plate (Corning, 3912, Assay plate 96 well, white polystyrene), and absorbance was measured using a GloMax-Multi Detection System (Promega, E7051). A caspase inhibitor, i.e., 10μ MZ-VD-FMK (WAKO, 262-02061) was used as a positive control.

With `NC(=O)c1ccc(-c2nc(-c3ccc4c(c3)OCO4)c(-c3ccccn3)[nH]2)cc1` [SB431542, reference compound], the “effect of suppressing corneal endothelial cell disorder” value in data set [1] (compound at 3 μM and 10 μM) is “suppressed”; in data set [1] (compound at 10 μM) it was “effectively suppressed”. Also, the “effect of suppressing corneal endothelial disorders” value in data set [1] (summary statement, at sub-μM (1 μM to 0.1 μM)) was “not observed”. For the same compound, the “cell survival rate compared to a control group” value in the data set on iFECD is “a significant difference was not found”. In the data set with Caspase 3/7, the “activity of Caspase 3/7” value is given as “reduced”.

The values are drawn from US11857544B2, “Composition or method including (t)ew-7197 for treating or preventing corneal endothelial diseases” (THE DOSHISHA, priority 2017, dated 2024).
